Results as given in US12692234B2, “Rock inhibitors and uses thereof” (Alcon Inc., priority 2024, dated 2026).

How the values were obtained:
ROCK2 = ROCK2 (Homo sapiens, UniProt O75116); settings: read-out: Ki (nM) ROCK2
ROCK1 = ROCK1 (Homo sapiens, UniProt Q13464); test: Kinase inhibition assay (KINASE-GLO), ROCK1; format: biochemical
Sequence of ROCK1 (Q13464 whole entry): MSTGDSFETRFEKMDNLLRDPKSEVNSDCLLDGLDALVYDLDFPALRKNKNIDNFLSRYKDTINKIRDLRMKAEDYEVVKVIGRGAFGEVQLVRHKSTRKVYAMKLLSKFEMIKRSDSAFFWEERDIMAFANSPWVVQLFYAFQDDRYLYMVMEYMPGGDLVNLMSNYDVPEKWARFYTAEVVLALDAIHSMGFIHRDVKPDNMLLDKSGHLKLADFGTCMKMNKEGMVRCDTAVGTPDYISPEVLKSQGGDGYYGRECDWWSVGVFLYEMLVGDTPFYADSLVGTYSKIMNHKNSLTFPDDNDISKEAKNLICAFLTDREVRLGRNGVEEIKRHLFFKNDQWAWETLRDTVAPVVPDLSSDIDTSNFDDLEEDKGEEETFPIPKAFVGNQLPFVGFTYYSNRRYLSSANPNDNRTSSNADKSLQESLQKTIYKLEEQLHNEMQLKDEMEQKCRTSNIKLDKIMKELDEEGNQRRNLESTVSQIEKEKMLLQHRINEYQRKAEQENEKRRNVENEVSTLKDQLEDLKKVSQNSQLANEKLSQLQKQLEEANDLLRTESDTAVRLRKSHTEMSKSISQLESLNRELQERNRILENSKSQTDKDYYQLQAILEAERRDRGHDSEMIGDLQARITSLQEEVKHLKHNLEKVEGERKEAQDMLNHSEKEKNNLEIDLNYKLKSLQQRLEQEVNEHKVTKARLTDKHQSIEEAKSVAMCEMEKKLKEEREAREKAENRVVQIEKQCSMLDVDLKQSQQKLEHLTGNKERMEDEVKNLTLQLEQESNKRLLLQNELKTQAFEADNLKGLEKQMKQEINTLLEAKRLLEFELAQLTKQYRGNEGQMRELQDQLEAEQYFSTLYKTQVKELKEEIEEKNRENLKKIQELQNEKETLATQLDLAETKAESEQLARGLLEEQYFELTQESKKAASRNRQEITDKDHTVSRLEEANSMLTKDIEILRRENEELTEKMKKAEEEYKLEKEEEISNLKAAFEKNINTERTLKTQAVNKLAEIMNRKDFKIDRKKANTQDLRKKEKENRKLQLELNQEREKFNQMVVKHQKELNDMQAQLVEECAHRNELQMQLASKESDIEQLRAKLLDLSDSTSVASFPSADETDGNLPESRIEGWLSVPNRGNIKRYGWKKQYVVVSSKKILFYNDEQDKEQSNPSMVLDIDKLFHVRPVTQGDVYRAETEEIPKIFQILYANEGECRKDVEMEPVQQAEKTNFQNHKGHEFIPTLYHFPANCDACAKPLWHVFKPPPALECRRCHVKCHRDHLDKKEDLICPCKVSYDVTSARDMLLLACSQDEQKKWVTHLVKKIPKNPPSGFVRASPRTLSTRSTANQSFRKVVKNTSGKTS

Sequence of ROCK2 (O75116 whole entry): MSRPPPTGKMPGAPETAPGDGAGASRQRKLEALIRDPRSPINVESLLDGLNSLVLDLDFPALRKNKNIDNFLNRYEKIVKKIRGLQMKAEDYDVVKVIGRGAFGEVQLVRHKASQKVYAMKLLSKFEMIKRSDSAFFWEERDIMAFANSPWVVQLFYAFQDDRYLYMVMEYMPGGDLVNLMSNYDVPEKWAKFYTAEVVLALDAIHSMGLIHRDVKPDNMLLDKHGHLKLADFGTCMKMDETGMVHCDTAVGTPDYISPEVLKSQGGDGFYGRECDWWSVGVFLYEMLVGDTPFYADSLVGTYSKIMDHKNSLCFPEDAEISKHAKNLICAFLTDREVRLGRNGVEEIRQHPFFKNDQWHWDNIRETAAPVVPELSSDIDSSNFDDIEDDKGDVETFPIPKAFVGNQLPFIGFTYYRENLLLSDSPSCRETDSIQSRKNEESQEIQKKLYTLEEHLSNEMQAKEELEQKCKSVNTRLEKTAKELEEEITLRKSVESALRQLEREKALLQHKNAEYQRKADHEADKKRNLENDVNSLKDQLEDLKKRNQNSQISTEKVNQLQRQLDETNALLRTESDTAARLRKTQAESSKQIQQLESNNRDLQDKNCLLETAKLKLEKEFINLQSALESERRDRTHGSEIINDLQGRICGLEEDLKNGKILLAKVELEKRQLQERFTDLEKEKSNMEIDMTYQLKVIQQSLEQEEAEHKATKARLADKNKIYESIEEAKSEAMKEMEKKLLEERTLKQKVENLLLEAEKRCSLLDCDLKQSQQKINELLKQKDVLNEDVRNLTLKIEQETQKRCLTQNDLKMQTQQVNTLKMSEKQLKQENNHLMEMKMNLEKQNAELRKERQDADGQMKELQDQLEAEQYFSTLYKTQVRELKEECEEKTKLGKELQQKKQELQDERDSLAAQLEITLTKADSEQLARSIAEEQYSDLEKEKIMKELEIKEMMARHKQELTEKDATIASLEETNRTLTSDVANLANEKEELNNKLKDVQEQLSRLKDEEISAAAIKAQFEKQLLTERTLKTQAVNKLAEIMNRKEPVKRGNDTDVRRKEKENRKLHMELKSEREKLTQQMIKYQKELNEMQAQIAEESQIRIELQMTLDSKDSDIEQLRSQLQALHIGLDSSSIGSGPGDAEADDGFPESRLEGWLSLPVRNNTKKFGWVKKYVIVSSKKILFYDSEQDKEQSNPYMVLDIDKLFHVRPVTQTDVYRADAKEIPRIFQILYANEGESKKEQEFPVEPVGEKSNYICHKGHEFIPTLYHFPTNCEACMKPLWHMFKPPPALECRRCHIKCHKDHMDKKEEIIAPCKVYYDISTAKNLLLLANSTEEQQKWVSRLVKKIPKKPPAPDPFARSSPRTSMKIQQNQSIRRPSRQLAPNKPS

Ki (ROCK2): 0.2 nM
Ki (ROCK1): 0.2 nM
Structure (SMILES): NC[C@@H](C(=O)Nc1ccc2cnccc2c1)c1ccc(CO)cc1
